Measurements as given in patent US20260055102A1 (Redx Pharma Limited, priority 2022, published 2026).

What was measured:
[1] = molecular target: Recombinant human DDR2 (aa427-855 containing a GST tag) (Homo sapiens (Human), UniProt Q16832); experiment: LanthaScreen Eu Kinase Binding Assay DDR2; settings: Kinase Tracer 178 10 nM, at least two independent replicates; for IC50: read-out: DDR2 pIC50 (converted)
Method in brief: (§1)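 DDR1 (2.5 nM) or DDR2 (1.75 nM) was preincubated with compound 30 min at RT in 50 mM HEPES pH 7.3, 10 mM MgCl2, 1 mM EGTA, 0.01% Tween. Eu-anti-GST and Tracer 178 were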

[2] = molecular target: Recombinant human DDR1 (aa440-876 containing a GST tag) (Homo sapiens (Human), UniProt Q08345); experiment: LanthaScreen Eu Kinase Binding Assay DDR1; settings: Kinase Tracer 178 5 nM, at least two independent replicates; for IC50: read-out: DDR1 pIC50 (converted)
Recombinant human DDR1 (aa440-876 containing a GST tag), sequence (Q08345 other isoform, or with tags, fused parts or gaps): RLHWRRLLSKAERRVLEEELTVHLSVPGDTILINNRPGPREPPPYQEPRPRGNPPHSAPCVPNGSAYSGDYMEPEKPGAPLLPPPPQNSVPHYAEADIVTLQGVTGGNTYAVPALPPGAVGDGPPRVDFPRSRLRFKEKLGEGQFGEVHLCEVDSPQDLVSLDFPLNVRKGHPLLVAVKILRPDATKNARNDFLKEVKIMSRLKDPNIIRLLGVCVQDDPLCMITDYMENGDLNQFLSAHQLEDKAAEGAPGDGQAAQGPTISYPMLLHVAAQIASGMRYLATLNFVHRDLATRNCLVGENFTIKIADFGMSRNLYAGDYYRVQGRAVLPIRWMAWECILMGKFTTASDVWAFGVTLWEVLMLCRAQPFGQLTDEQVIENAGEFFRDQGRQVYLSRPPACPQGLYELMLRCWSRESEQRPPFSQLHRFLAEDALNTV
Method in brief: as §1

Recombinant human DDR2 (aa427-855 containing a GST tag), sequence (Q16832 427-855): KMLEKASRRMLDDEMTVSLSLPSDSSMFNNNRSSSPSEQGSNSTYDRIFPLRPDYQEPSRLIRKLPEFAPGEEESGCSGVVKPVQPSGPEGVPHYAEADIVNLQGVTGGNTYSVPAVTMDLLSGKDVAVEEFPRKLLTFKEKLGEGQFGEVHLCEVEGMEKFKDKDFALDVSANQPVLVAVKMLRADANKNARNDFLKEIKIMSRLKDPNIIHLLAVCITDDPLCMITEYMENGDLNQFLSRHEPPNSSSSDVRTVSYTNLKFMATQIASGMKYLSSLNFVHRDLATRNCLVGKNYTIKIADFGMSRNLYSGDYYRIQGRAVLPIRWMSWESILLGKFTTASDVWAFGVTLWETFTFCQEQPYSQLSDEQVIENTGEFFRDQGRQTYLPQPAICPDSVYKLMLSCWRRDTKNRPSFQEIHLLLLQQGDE

| IC50 [1] [nM] | DDR1 pIC50 [2] | DDR2 pIC50 [1] | IC50 [2] [nM] | SMILES |
| --- | --- | --- | --- | --- |
| 10 to 100 | A (pIC50>8) | – | – | Cc1cccc2c1n(-c1ccc(-c3cncc4[nH]ncc34)cn1)c(=O)n2CC(=O)N[C@@H](C)C(F)(F)F [Example 69, 2-[4-methyl-2-oxo-3-[5-(1H-pyrazolo[3,4-c]pyridin-4-yl)-2-pyridyl]benzimidazol-1-yl]-N-[(1S)-2,2,2-trifluoro-1-methyl-ethyl]acetamide] |
| 100 to 1000 | A (pIC50>8) | – | – | Cc1cccc2c1n(-c1ccc(-c3cncc4[nH]ncc34)cn1)c(=O)n2CC(=O)N1CCO[C@H](C(F)(F)F)C1 [Example 70, 4-methyl-1-[2-oxo-2-[(2S)-2-(trifluoromethyl)morpholin-4-yl]ethyl]-3-[5-(1H-pyrazolo[3,4-c]pyridin-4-yl)-2-pyridyl]benzimidazol-2-one] |
| 100 to 1000 | A (pIC50>8) | – | – | Cc1cccc2c1n(-c1ccc(-c3cncc4[nH]ncc34)cn1)c(=O)n2CC(=O)N1CCO[C@@H](C(F)(F)F)C1 [Example 71, 4-methyl-1-[2-oxo-2-[(2R)-2-(trifluoromethyl)morpholin-4-yl]ethyl]-3-[5-(1H-pyrazolo[3,4-c]pyridin-4-yl)-2-pyridyl]benzimidazol-2-one] |
| 100 to 1000 | A (pIC50>8) | – | – | Cc1cccc2c1n(-c1ccc(-c3cncc4[nH]ncc34)cn1)c(=O)n2CC(=O)NCC(F)(F)F [Example 72, 2-[4-methyl-2-oxo-3-[5-(1H-pyrazolo[3,4-c]pyridin-4-yl)-2-pyridyl]benzimidazol-1-yl]-N-(2,2,2-trifluoroethyl)acetamide] |
| 100 to 1000 | A (pIC50>8) | – | – | Cc1cccc2c1n(-c1ncc(-c3cncc4[nH]ncc34)cn1)c(=O)n2CC(=O)N[C@@H](C)C(F)(F)F [Example 73, 2-[4-methyl-2-oxo-3-[5-(1H-pyrazolo[3,4-c]pyridin-4-yl)pyrimidin-2-yl]benzimidazol-1-yl]-N-[(1S)-2,2,2-trifluoro-1-methyl-ethyl]acetamide] |
| – | – | D (pIC50≤6) | 10 to 100 | Cn1ncc2c(-c3ccc(-n4c(=O)n(CC(=O)NCC(F)(F)F)c5cccc(C#N)c54)cc3)cncc21 [Example 74, 2-[4-cyano-3-[4-(1-methylpyrazolo[3,4-c]pyridin-4-yl)phenyl]-2-oxo-benzimidazol-1-yl]-N-(2,2,2-trifluoroethyl)acetamide] |
| 100 to 1000 | – | – | 10 to 100 | Cc1cccc2c1n(-c1cnc(-c3cncc4c3cnn4C)nc1)c(=O)n2CC(=O)NCC(F)(F)F [Example 75, 2-[4-methyl-3-[2-(1-methylpyrazolo[3,4-c]pyridin-4-yl)pyrimidin-5-yl]-2-oxo-benzimidazol-1-yl]-N-(2,2,2-trifluoroethyl)acetamide] |
| – | D (pIC50≤6) | D (pIC50≤6) | – | Cn1ncc2c(-c3ccc(-n4c(=O)n(CC(=O)NCC(F)(F)F)c5cccnc54)cc3)cncc21 [Example 76, 2-[3-[4-(1-methylpyrazolo[3,4-c]pyridin-4-yl)phenyl]-2-oxo-imidazo[4,5-b]pyridin-1-yl]-N-(2,2,2-trifluoroethyl)acetamide] |
| – | D (pIC50≤6) | D (pIC50≤6) | – | Cn1ncc2c(-c3ccc(-n4c(=O)n(CC(=O)NCC(F)(F)F)c5ccncc54)cc3)cncc21 [Example 77, 2-[3-[4-(1-methylpyrazolo[3,4-c]pyridin-4-yl)phenyl]-2-oxo-imidazo[4,5-c]pyridin-1-yl]-N-(2,2,2-trifluoroethyl)acetamide] |
| – | D (pIC50≤6) | D (pIC50≤6) | – | Cn1ncc2c(-c3ccc(-n4c(=O)n(CC(=O)NCC(F)(F)F)c5cnccc54)cc3)cncc21 [Example 78, 2-[1-[4-(1-methylpyrazolo[3,4-c]pyridin-4-yl)phenyl]-2-oxo-imidazo[4,5-c]pyridin-3-yl]-N-(2,2,2-trifluoroethyl)acetamide] |
| – | – | D (pIC50≤6) | 10 to 100 | Cn1ncc2c(-c3ccc(-n4c(=O)n(CC(=O)N5CCC[C@H]5C(F)(F)F)c5cccnc54)cc3)cncc21 [Example 79, 3-[4-(1-methylpyrazolo[3,4-c]pyridin-4-yl)phenyl]-1-[2-oxo-2-[(2S)-2-(trifluoromethyl)pyrrolidin-1-yl]ethyl]imidazo[4,5-b]pyridin-2-one] |
| – | D (pIC50≤6) | D (pIC50≤6) | – | COc1cccc2c1n(-c1ccc(-c3cncc4c3cnn4C)cc1C)c(=O)n2CC(=O)NCC(F)(F)F [Example 81, 2-[4-methoxy-3-[2-methyl-4-(1-methylpyrazolo[3,4-c]pyridin-4-yl)phenyl]-2-oxo-benzimidazol-1-yl]-N-(2,2,2-trifluoroethyl)acetamide] |
| 10 to 100 | A (pIC50>8) | – | – | Cc1cc(-c2cncc3c2cnn3C)ccc1-n1c(=O)n(CC(=O)N[C@@H](C)C(F)(F)F)c2cccc(C)c21 [Example 82, 2-[4-methyl-3-[2-methyl-4-(1-methylpyrazolo[3,4-c]pyridin-4-yl)phenyl]-2-oxo-benzimidazol-1-yl]-N-[(1S)-2,2,2-trifluoro-1-methyl-ethyl]acetamide] |
| 100 to 1000 | A (pIC50>8) | – | – | Cc1cc(-c2cncc3c2cnn3C)ccc1-n1c(=O)n(CC(=O)NCC(F)(F)F)c2cccc(Cl)c21 [Example 83, 2-[4-chloro-3-[2-methyl-4-(1-methylpyrazolo[3,4-c]pyridin-4-yl)phenyl]-2-oxo-benzimidazol-1-yl]-N-(2,2,2-trifluoroethyl)acetamide] |
| 10 to 100 | A (pIC50>8) | – | – | Cc1cc(-c2cncc3c2cnn3C)ccc1-n1c(=O)n(CC(=O)N[C@@H](C)C(F)(F)F)c2cccc(Cl)c21 [Example 84, 2-[4-chloro-3-[2-methyl-4-(1-methylpyrazolo[3,4-c]pyridin-4-yl)phenyl]-2-oxo-benzimidazol-1-yl]-N-[(1S)-2,2,2-trifluoro-1-methyl-ethyl]acetamide] |
| – | D (pIC50≤6) | D (pIC50≤6) | – | COc1cccc2c1n(-c1ccc(-c3cncc4c3cnn4C)cc1)c(=O)n2CC(=O)N[C@@H](C)C(F)(F)F [Example 85, 2-[4-methoxy-3-[4-(1-methylpyrazolo[3,4-c]pyridin-4-yl)phenyl]-2-oxo-benzimidazol-1-yl]-N-[(1S)-2,2,2-trifluoro-1-methyl-ethyl]acetamide] |
| – | – | D (pIC50≤6) | 100 to 1000 | Cn1ncc2c(-c3ccc(-n4c(=O)n(CC(=O)NCC(F)(F)F)c5cccc(F)c54)cc3)cncc21 [Example 86, 2-[4-fluoro-3-[4-(1-methylpyrazolo[3,4-c]pyridin-4-yl)phenyl]-2-oxo-benzimidazol-1-yl]-N-(2,2,2-trifluoroethyl)acetamide] |
| – | A (pIC50>8) | D (pIC50≤6) | – | Cn1ncc2c(-c3ccc(-n4c(=O)n(CC(=O)NCC(F)(F)F)c5ccccc54)c(Cl)c3)cncc21 [Example 87, 2-[3-[2-chloro-4-(1-methylpyrazolo[3,4-c]pyridin-4-yl)phenyl]-2-oxo-benzimidazol-1-yl]-N-(2,2,2-trifluoroethyl)acetamide] |
| – | – | D (pIC50≤6) | 100 to 1000 | COc1cc(-c2cncc3c2cnn3C)ccc1-n1c(=O)n(CC(=O)NCC(F)(F)F)c2ccccc21 [Example 88, 2-[3-[2-methoxy-4-(1-methylpyrazolo[3,4-c]pyridin-4-yl)phenyl]-2-oxo-benzimidazol-1-yl]-N-(2,2,2-trifluoroethyl)acetamide] |
